# Data taken from ChEMBL document CHEMBL2150934, “Identification of a potent and metabolically stable series of fluorinated diphenylpyridylethanamine-based cholesteryl ester transfer protein inhibitors” (Bioorg Med Chem Lett, 2012).
# Tests used:
# Assay type in all cases: ADME, organism-based
# [1] = Plasma concentration in transgenic mouse expressing human CETP/apoB100 at 30 mg/kg, po at 4 hrs; set-up: dose 30 mg/kg, route oral
# [2] = Plasma concentration in transgenic mouse expressing human CETP/apoB100 at 30 mg/kg, po at 2 hrs; set-up: dose 30 mg/kg, route oral
# [3] = Plasma concentration in transgenic mouse expressing human CETP/apoB100 at 30 mg/kg, po at 8 hrs; set-up: dose 30 mg/kg, route oral
# [4] = AUC (0 to 8 hrs) in transgenic mouse expressing human CETP/apoB100 at 30 mg/kg, po; set-up: time < 8 hr, dose 30 mg/kg, route oral; settings: plasma
smiles,measurement,setting,value
O=C(N[C@@H]1CCC(F)(F)C1)N[C@@](Cc1ccccc1)(c1cc(F)cc(OC(F)(F)C(F)F)c1)c1ccc(Cl)cn1,concentration at 4 h,[1],249 nM
same,concentration at 2 h,[2],1070 nM
same,concentration at 8 h,[3],112 nM
same,AUC(0-t) at 8 h,[4],3.2 µM·h
